Laboratory results taken from PMC6094102 (Proceedings of the National Academy of Sciences of the …, 2018).
Like-named read-outs stand apart in the source and are kept apart here. Blank lines part the entries; values can stand above or below the compound they belong to.

Tests used:
[1] = test system: MDA-MB-231 cells; test: Matrigel transwell invasion assay; format: cell-based; details: MDA-MB-231, 5 μM, 24 h
[2] = test system: MM.1S.BR cells; test: Cell viability of bortezomib-resistant myeloma cells; format: cell-based
[3] = target: T1, DYRK3 (Homo sapiens, UniProt O43781); test: DYRK3 kinase assay, IC50 determination
T1 sequence (O43781 1-588): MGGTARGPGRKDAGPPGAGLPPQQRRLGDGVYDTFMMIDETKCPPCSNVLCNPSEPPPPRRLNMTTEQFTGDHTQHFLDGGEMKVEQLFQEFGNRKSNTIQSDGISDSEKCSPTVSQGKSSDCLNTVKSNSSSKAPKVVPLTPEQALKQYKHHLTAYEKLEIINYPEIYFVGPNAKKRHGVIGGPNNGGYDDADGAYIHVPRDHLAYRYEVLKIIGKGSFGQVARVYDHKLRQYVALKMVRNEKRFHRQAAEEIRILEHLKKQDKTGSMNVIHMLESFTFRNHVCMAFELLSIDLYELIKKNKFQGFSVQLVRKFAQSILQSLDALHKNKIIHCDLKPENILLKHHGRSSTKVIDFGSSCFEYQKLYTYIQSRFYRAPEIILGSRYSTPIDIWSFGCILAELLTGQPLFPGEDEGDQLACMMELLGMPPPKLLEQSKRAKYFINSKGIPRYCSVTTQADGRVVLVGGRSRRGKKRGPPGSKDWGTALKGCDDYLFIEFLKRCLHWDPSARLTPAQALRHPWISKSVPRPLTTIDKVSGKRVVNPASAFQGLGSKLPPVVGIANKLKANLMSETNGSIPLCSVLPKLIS

[4] = test system: Hs578T cells; test: Matrigel transwell invasion assay; format: cell-based; details: 5 μM, 24 h
[5] = test system: 26S proteasome; test: Affinity-purified 26S proteasome, bodipy-casein degradation in vitro; format: biochemical, human; details: 10 μM
[6] = test system: 26S proteasome in MDA-MB-231 cells; test: Proteasome activity in total cell lysates, Suc-LLVY-AMC; format: cell-based; details: 1 h
[7] = target: T2, GSK3β (Homo sapiens, UniProt P49841); test: GSK3β kinase assay, IC50 determination; format: biochemical
T2 sequence (P49841 whole entry): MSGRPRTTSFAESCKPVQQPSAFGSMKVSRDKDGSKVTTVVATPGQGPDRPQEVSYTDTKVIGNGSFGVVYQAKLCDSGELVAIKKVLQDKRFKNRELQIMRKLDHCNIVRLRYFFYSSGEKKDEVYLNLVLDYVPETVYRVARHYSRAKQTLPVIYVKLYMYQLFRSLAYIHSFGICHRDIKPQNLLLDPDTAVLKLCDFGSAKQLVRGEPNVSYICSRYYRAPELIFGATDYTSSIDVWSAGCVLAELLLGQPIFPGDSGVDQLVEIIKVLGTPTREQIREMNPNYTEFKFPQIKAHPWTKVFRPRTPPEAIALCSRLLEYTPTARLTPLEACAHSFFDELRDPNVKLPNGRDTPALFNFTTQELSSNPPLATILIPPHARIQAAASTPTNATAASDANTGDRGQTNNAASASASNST

[8] = test system: 5TGM1-GFP cells; test: Cell proliferation by cell counting; format: cell-based; details: 1 µM, 5 days
[9] = test system: RPMI8226.BR cells; test: Cell viability of bortezomib-resistant myeloma cells; format: cell-based
[10] = test system: MDA-MB-231 xenograft tumors; test: MDA-MB-231 tumor xenograft in NSG mice; format: in vivo
[11] = test system: 26S proteasome in HaCaT cells; test: Proteasome activity in total cell lysates, Suc-LLVY-AMC; format: cell-based; details: 10 μM, 1 h
[12] = target: T3, DYRK2 (Homo sapiens, UniProt Q92630); test: DYRK2 kinase assay, IC50 determination; format: biochemical; details: 0.025 mM, 0.1 mM or 2 mM ATP
T3 sequence (Q92630 1-601): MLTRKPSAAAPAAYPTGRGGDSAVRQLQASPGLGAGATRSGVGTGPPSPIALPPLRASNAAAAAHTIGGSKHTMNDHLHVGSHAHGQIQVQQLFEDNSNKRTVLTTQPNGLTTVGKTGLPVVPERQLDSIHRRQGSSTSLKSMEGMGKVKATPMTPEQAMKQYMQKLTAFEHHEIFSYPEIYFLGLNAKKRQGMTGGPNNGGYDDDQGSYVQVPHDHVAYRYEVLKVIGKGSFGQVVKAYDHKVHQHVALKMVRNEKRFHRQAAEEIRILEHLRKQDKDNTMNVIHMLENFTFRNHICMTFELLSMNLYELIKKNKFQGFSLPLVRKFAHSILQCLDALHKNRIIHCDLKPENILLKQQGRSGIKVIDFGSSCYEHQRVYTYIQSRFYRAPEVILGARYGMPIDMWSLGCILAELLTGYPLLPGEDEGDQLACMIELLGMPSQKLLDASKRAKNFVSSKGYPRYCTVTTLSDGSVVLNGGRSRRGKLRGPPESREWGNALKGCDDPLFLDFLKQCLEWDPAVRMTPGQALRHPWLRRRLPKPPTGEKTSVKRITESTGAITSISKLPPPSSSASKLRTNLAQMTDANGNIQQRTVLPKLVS

[13] = target: T3, DYRK2; test: pT25 RPT3 phosphorylation in HEK293T cells stably expressing FLAG-DYRK2; format: cell-based
[14] = test system: multiple myeloma cell lines; test: Caspase 3/7 activity; format: cell-based; details: multiple myeloma cell lysates, 16 h
[15] = target: T2, GSK3β; details: read-out: IC50 GSK3β; cited from earlier work
[16] = test system: UBL-YFP-PEST in HEK293T cells; test: UBL-YFP-PEST reporter degradation; format: cell-based; details: 10 μM, 1 h pretreatment, CHX 2 h
[17] = test system: MDA-MB-231 cells; test: Cell proliferation by cell counting; format: cell-based; details: 3 µM

- IC50 [3]: 20 nM
- IC50 [7]: > 3000 nM
- effect of higher concentrations of ATP on the IC50 for DYRK2 [12]: modest effect
- concentration at which curcumin inhibits DYRK2 in cells [13]: 1 to 10 µM
- inhibitor concentration of maximal suppression of pT25 RPT3 phosphorylation ([13]; 0.5 h): 3–10 μM
Structure (SMILES): COc1cc(/C=C/C(=O)CC(=O)/C=C/c2ccc(O)c(OC)c2)ccc1O [curcumin]
- cell invasion, 3D matrigel invasion assay [1]: largely blocked
- cytotoxicity versus bortezomib-sensitive WT counterpart ([2]; MM.1S.BR, 10 μM, 24 h): comparable cytotoxicity
- cell invasion, 3D matrigel invasion assay [4]: largely blocked
- effect on activity of affinity-purified proteasome to degrade BODIPY-casein [5]: no significant effect
- proteasome activity with curcumin treatment in DYRK2-null cells ([6]; DYRK2-null MDA-MB-231, 10 μM): no further decrease of proteasome activity
- decrease of proteasome activity toward Suc-LLVY-AMC ([6]; MDA-MB-231 parental, 10 μM): 25–40%
- rate of cell proliferation compared with DMSO-treated controls [8]: markedly slower rate of cell proliferation
- cytotoxicity versus bortezomib-sensitive WT counterpart ([9]; RPMI8226.BR, 10 μM, 24 h): comparable cytotoxicity
- Ki-67 staining in xenograft tumors ([10]; 300 mg/kg i.p.): greatly attenuated
- tumor burden ([10]; 300 mg/kg i.p. every alternate day, after 2 wk of treatment, NSG mice): significantly reduced tumor burden
- reduction of proteasome activity in curcumin-treated mouse tumors ([10]; 300 mg/kg i.p., whole-tumor lysates, Suc-LLVY-AMC): 30%
- proteasome activity with curcumin treatment in DYRK2-null cells ([11]; DYRK2-null HaCaT): no further decrease of proteasome activity
- decrease of proteasome activity toward Suc-LLVY-AMC ([11]; HaCaT parental): 25–40%
- caspase3/7 activity [14]: significant increase
- IC50 [15]: 66 nM
- UBL-YFP-PEST reporter protein degradation [16]: stabilized
- cell proliferation in DYRK2 KO cells ([17]; MDA-MB-231 DYRK2 KO): did not exhibit a further decrease in cell proliferation
- rate of cell proliferation compared with DMSO-treated controls ([17]; MDA-MB-231 WT, 5 days): markedly slower rate of cell proliferation

Structure (SMILES): CC(C)C[C@H](NC(=O)[C@H](Cc1ccccc1)NC(=O)c1cnccn1)B(O)O [bortezomib]
- resistance to bortezomib relative to bortezomib-sensitive cells ([2]; MM.1S.BR vs MM.1S): 20- to 100 fold
- resistance to bortezomib relative to bortezomib-sensitive cells ([9]; RPMI8226.BR vs RPMI8226): 20- to 100 fold
